Measurements as given in patent publication US20260191810A1, “CAROTENOID COMPOSITIONS AND USES THEREOF” (L.E.A.F. HOLDINGS GROUP LLC, priority 2019, published 2026).

How the values were obtained:
mouse CLP sepsis model = assay: Survival Study 1 (TP-936), CLP sepsis efficacy; format: in vivo, C57BL/6 mice; details: CLP mice treated with saline and imipenem (imipenem-treated control)
Excerpt: Male and/or female C57BL/6 mice ordered from Envigo Laboratories or the Jackson Lab (Bar Harbor, Maine) were acclimated to housing conditions and handled in accordance with Animal Use Protocol (AUP) number TP-05. The animals were acclimated for approximately 1 week prior to study start. Only animals deemed healthy were included in this study. Animals were fed irradiated Teklad Global Rodent Diet 2918 and water ad libitum. Mice were group housed 5/cage in static cages with irradiated Teklad ⅛″ corn cob bedding 7902 inside bioBubble® Clean Rooms that provide H.E.P. A filtered air into the bubble environment at 100 complete air changes per hour. The environment was controlled to a temperature range of 74°±5° F. and a humidity range of 30-70%. Treatment groups were identified by cage card. Individual mice were identified by indelible marker on the base of the tail. All procedures carried out in this experiment were conducted in compliance with the laws, regulations, and guidelines of the National Institutes of Health and with the approval of the TransPharm Animal Care and Use Committee.
On Day −1, male and/or female mice were anesthetized through use of isoflurane and brought to a surgical plane. […]
Animals were monitored continually post-surgery, at least once every 2-3 minutes for approximately 30 minutes, until the animals had recovered and were able to move about on their own. […]

[1] = Liposomal CTC and MTC PK, single slow intravenous bolus, plasma HPLC; format: in vivo; details: Balb/c mice

Row | AUC [1] [µg·h/mL] | T1/2 [1] [min] | Compound | mortality (mouse CLP sepsis model) [%]
1 | – | – | C[C@@H](O)[C@H]1C(=O)N2C(C(=O)O)=C(SCCN=CN)C[C@H]12 [imipenem] | 50
2 | 260 | 28.2 | CC(/C=C/C=C(\C)C(=O)O)=C\C=C\C=C(C)\C=C\C=C(/C)C(=O)O [STC free drug, sodium trans-crocetinate] | –
